Laboratory results published in paper PMC4501038 (RSC advances, 2015).
pKi: −log10 of the molar value. Counter-ions that a name gives are not always drawn. Values belong to the compound of their own block, whether it stands above or below them. Non-standard residues stand in square brackets, D forms with d. pGlu = O=C1CC[C@@H](C(=O)O)N1

How the values were obtained:
anesthetized mice [1] = test: Cerebral blood flow; assay type: in vivo; conditions: 6c 3.9 mg/kg, % change from basal
scopolamine-treated mice [2] = test: Scopolamine-induced memory impairment, Morris water maze; assay type: in vivo; conditions: for working memory: escape latencies trial 1 vs trial 2: each day for four days, 6c 3.9 mg/kg, scopolamine 1 mg/kg
Swiss albino mice = test: Reversal of pentobarbital-induced sleeping time; assay type: in vivo; conditions: 10 μmol/kg i.v.
mice = test: Functional observation battery; conditions: mouse, in vivo
anesthetized mice [3] = test: Cardiovascular parameters; conditions: noradrenaline, dose not given
TRH-DE = conditions: read-out: Ki, inhibition of TRH-DE; cited from earlier work
central TRH receptors = conditions: read-out: Ki, binding to central TRH receptors; cited from earlier work
rodents = conditions: cited from earlier work
scopolamine-treated mice [4] = test: Scopolamine-induced memory impairment, passive avoidance test; assay type: in vivo; conditions: rivastigmine (positive control) plus scopolamine

- FOB arousal (mice): moderate arousal
- FOB gait and posture (mice): normal till three hours
- FOB posture (mice): normal posture
- FOB respiration (mice): do not affect normal respiration
- FOB spontaneous activity in open field (mice): do not increase spontaneous activity
Compound: NC(=O)[C@@H]1CCCN1C(=O)[C@H](Cc1cnc[nH]1)NC(=O)[C@@H]1CCC(=O)N1 [TRH, pGlu-His-ProNH2]
- increase in cerebral blood flow (anesthetized mice [1]): 93.4±2.9%
- working memory: escape latencies trial 1 vs trial 2 (scopolamine-treated mice [2]): significantly decrease in trial 2 compared to trial 1 on all four days
- Sleeping duration (Mean± SEM) (Swiss albino mice; pentobarbital 50 mg/kg i.p. 10 min later, mice): 53.9 ± 3.7 min
- (%) Reduction in time (Swiss albino mice; relative to control, pentobarbital 50 mg/kg i.p.): 42.5%

Compound: NC[C@H](O)c1ccc(O)c(O)c1 [Noradrenaline]
- Δ Heart Rate (anesthetized mice [3]): 56.6±9 BPM
- Δ MAP (anesthetized mice [3]): 42.8±2.2 mm Hg
- Δ mean Diastolic BP (anesthetized mice [3]): 37.2±3.2 mm Hg
- Δ mean Systolic BP (anesthetized mice [3]): 54.1±1.7 mm Hg

Compound: [pGlu]NP[dY][dW]-NH2
- pKi (TRH-DE): 6.82
- pKi (central TRH receptors): 8.17

Compound: [1-methyl-(S)-4,5-dihydroorotyl)]-L-His-L-ProNH2 [TAL]
- doses producing CNS effects, times lower than TRH (rodents): about 100 times
- duration of antagonistic action on PB-induced sleep relative to TRH (rodents): eight times longer

Compound: CN1[C@@H]2C[C@@H](OC(=O)[C@H](CO)c3ccccc3)C[C@H]1[C@@H]1O[C@@H]12 [scopolamine, scopolamine hydrobromide]
- area under curve of the escape latencies in four-day trial (scopolamine-treated mice [2]; dose study, scopolamine (1 mg/kg i.p.) alone): 337.5 ± 12.2 s
- working memory: escape latencies trial 1 vs trial 2 (scopolamine-treated mice [2]): did not show any significant difference between two trials

Compound: CCN(C)C(=O)Oc1cccc([C@H](C)N(C)C)c1 [rivastigmine]
- step through latency (retention) (scopolamine-treated mice [4]): 235.1 ± 27.6 s
- working memory: escape latencies trial 1 vs trial 2 (scopolamine-treated mice [2]): significant effect on day 1, 2 and 3
